Experimental data reported in patent US10975083B2, “Blood-brain barrier-penetrant dopamine-β-hydroxylase inhibitors” (BIAL—PORTELA & Cᵃ, S.A., priority 2016, dated 2021).

Molecular target: T1, DβH (Homo sapiens, UniProt P09172)
T1 construct: reaction mixture (total volume 500 μl) contained: cellular homogenate (75 μg total protein); host or cells: SK-N-SH cell homogenate
T1 sequence (P09172 1-617): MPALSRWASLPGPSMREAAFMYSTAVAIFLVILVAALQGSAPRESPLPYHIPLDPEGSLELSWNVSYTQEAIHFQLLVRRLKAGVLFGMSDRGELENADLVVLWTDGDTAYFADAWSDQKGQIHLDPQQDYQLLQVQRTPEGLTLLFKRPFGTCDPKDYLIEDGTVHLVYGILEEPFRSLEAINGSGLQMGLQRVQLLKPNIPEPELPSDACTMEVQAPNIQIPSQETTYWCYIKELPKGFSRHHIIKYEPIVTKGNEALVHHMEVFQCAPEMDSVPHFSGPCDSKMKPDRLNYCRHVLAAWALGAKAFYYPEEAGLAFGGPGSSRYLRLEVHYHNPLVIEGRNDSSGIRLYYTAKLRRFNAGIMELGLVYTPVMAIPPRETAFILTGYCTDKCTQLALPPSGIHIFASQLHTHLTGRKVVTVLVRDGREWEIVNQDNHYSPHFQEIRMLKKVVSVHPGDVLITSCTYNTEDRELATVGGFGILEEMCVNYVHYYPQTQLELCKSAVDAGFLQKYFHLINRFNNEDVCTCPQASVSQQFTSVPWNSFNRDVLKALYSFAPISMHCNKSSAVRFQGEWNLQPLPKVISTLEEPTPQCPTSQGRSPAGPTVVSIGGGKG
Assay: DβH inhibition cell assay (SK-N-SH cellular homogenates, tyramine to octopamine)
Format: biochemical
Settings: SK-N-SH cell homogenate; for remaining activity at 0.1 µM: inhibitor 0.1 μM, read-out: DβH activity in % of Ctrl (0.1 μM); for remaining activity at 1 µM: inhibitor 1 μM, read-out: DβH activity in % of Ctrl (1 μM); for remaining activity at 10 µM: inhibitor 10 μM, read-out: DβH activity in % of Ctrl (10 μM)
Experimental: The ability of a compound to inhibit DβH activity may be assessed using the following cell assay. […] . […] Fetal bovine serum was removed from cells for 4 h prior to collection.
For the preparation of cellular homogenates, media was removed and cell monolayers were washed with 50 mM Tris-HCl pH 7.4. Cells were subsequently scrapped off the flasks and were resuspended in 50 mM Tris pH 7.4. Cell suspensions were homogenized with SilentCrusher M (Heidolph) for a short stroke and resultant homogenates were aliquoted and stored frozen at −80° C.
Total protein was quantified in cellular homogenates with BioRad Protein Assay (BioRad) using a standard curve of BSA (50-250 μg/mL).
DβH activity was measured by a modification of the method of Nagatsu and Udenfriend (Nagatsu, T. and S. Udenfriend: “Photometric assay of dopamine-hydroxylase activity in human blood.” Clin. Chem. 18(9): 980-3, 1972) which is based on the enzymatic hydroxylation of tyramine into octopamine. The octopamine formed is subsequently oxidized to p-hydroxybenzaldehyde and measured by spectrophotometry. In brief, reaction mixture (total volume 500 μl) contained: cellular homogenate (75 μg total protein) sodium acetate pH 5.0 (200 mM), NEM (30 mM), CuSO4 (5 μM), catalase aqueous solution (0.5 mg/mL), pargyline-HCl (1 mM), sodium fumarate (10 mM), ascorbic acid (10 mM), inhibitor or vehicle and tyramine (25 mM). After a 10 min pre-incubation period at 37° C., the reaction was initiated by the addition of tyramine. Reaction was carried out for 45 min at 37° C. before termination with 50 μl PCA (2 M).
Samples were centrifuged for 3 min at 16100 g and supernatants were subjected to solid phase extraction. Solid phase extraction was performed using either SPE cartridges ISOLUTE SCX-3 (100 mg, 1 mL) or SPE 2 mL fixed 96 well plates ISOLUTE SCX-3 (100 mg) previously equilibrated with MilliQ water. Columns/plates were centrifuged at 150 g for 2 min. Eluate was discarded and matrix was washed with 1 mL of MilliQ water after which octopamine was eluted with 2×0.25 mL ammonium hydroxide (4 M). The oxidation of octopamine to p-hydroxybenzaldehyde was carried out for 6 min with 100 μl sodium periodate (2%) and was stopped with 100 μl sodium metabisulfite (10%). Absorbance was measured at 330 nm on a Spectramax microplate reader (Molecular Devices, Sunnyvale, Calif.). All enzymatic reactions were performed in duplicate. Results are reported in the table below as activity in % of control at the inhibitor concentration tested.

SMILES | remaining activity at 0.1 µM | remaining activity at 1 µM | remaining activity at 10 µM
Fc1cc(Cl)cc([C@]23C[C@H]2c2c[nH]c(=S)n2C3)c1 [Example 73, (5aS,6aR)-5a-(3-chloro-5-fluorophenyl)-5,5a,6,6a-tetrahydrocyclopropa[3,4]pyrrolo[1,2-c]imidazole-3 (2H)-thione] | 41.7% | 5.1% | –
CNC(=S)N1C=CC(c2cc(F)cc(F)c2)C1 (stereo not drawn) [Example 48, 3-(3,5-Difluorophenyl)-N-methyl-2,3-dihydro-1H-pyrrole-1-carbothioamide] | – | 43% | –
Fc1cc(F)c(F)c([C@H]2Cc3c[nH]c(=S)n3C2)c1F [Example 62, (R)-6-(2,3,5,6-tetrafluorophenyl)-6,7-dihydro-2H-pyrrolo[1,2-c]imidazole-3(5H)-thione] | 43.1% | 9.8% | –
[2H]C1([2H])C2([2H])c3c[nH]c(=S)n3CC12c1cc(Cl)ccc1F (stereo not drawn) [Example 102, 5a-(5-chloro-2-fluorophenyl)-5,5a,6,6a-tetrahydrocyclopropa[3,4]pyrrolo[1,2-c]imidazole-3(2H)-thione-6,6,6a-d3] | 32% | 0% | –
NC(=S)N1CCC(c2cc(F)ccc2F)C1 (stereo not drawn) [Example 18, 3-(2,5-difluorophenyl)pyrrolidine-1-carbothioamide] | 57% | 6.4% | –
Fc1ccc(F)c([C@]23C[C@H]2c2c[nH]c(=S)n2C3)c1F [Example 68, (5aS,6aR)-5a-(2,3,6-trifluorophenyl)-5,5a,6,6a-tetrahydrocyclopropa[3,4]pyrrolo[1,2-c]imidazole-3 (2H)-thione] | – | 5.1% | –
S=c1[nH]cc2n1CC(C1CCCCC1)C2 (stereo not drawn) [Example 81, 6-cyclohexyl-6,7-dihydro-2H-pyrrolo[1,2-c]imidazole-3(5H)-thione] | – | 59.4% | –
NC(=S)N1CCC(c2ccc(F)cc2)C1 (stereo not drawn) [Example 3, 3-(4-Fluorophenyl)pyrrolidine-1-carbothioamide] | 89% | 53.8% | 3.9%
Cc1[nH]c(=S)n2c1[C@@H]1C[C@]1(c1cc(F)ccc1F)C2 [Example 78, (5aS,6aR)-5a-(2,5-difluorophenyl)-1-methyl-5,5a,6,6a-tetrahydrocyclopropa[3,4]pyrrolo[1,2-c]imidazole-3 (2H)-thione] | – | 10.9% | –
Cc1[nH]c(=S)n2c1C[C@@H](c1c(F)c(F)cc(F)c1F)C2 [Example 97, (S)-1-methyl-6-(2,3,5,6-tetrafluorophenyl)-2,5,6,7-tetrahydro-3H-pyrrolo[1,2-c]imidazole-3-thione] | 41.9% | 7.9% | –
Fc1ccc(Cl)c(F)c1[C@@H]1Cc2c[nH]c(=S)n2C1 [Example 85, (S)-6-(3-chloro-2,6-difluorophenyl)-2,5,6,7-tetrahydro-3H-pyrrolo[1,2-c]imidazole-3-thione] | 0% | 0% | –
Fc1ccc(Cl)c(F)c1[C@@]12C[C@@H]1c1c[nH]c(=S)n1C2 [Example 103, (5aR,6aS)-5a-(3-chloro-2,6-difluorophenyl)-5,5a,6,6a-tetrahydrocyclopropa[3,4]pyrrolo[1,2-c]imidazole-3 (2H)-thione] | 63.4% | 10.3% | –
NC(=S)N1CCC(c2ccc(F)c(F)c2F)C1 (stereo not drawn) [Example 22, 3-(2,3,4-trifluorophenyl)pyrrolidine-1-carbothioamide] | – | 27.4% | –
CNC(=S)N1CCC(c2c(F)c(F)cc(F)c2F)C1 (stereo not drawn) [Example 33, N-methyl-3-(2,3,5,6-tetrafluorophenyl)pyrrolidine-1-carbothioamide] | 11.8% | 1% | –
CNC(=S)N1C[C@@]2(c3cc(F)cc(F)c3)C[C@H]2C1=O [Example 41, (1S,5R)-1-(3,5-difluorophenyl)-N-methyl-4-oxo-3-azabicyclo[3.1.0]hexane-3-carbothioamide] | 29.8% | 0% | –
Cn1cc2n(c1=S)C[C@@]1(c3cc(F)cc(F)c3)C[C@@H]21 [Example 76, (5aS,6aR)-5a-(3,5-difluorophenyl)-2-methyl-5,5a,6,6a-tetrahydrocyclopropa[3,4]pyrrolo[1,2-c]imidazole-3 (2H)-thione] | – | 17.4% | –
Fc1cccc(F)c1[C@@]12C[C@@H]1c1c[nH]c(=S)n1C2 [Example 65, (5aR,6aS)-5a-(2,6-difluorophenyl)-5,5a,6,6a-tetrahydrocyclopropa[3,4]pyrrolo[1,2-c]imidazole-3(2H)-thione] | – | 17.9% | –
Fc1cc(F)c(F)c([C@@H]2Cc3c[nH]c(=S)n3C2)c1F [Example 61, (S)-6-(2,3,5,6-tetrafluorophenyl)-6,7-dihydro-2H-pyrrolo[1,2-c]imidazole-3(5H)-thione] | 52.2% | 8.4% | –
Fc1ccc(Cl)c(F)c1[C@]12C[C@H]1c1n[nH]c(=S)n1C2 [Example 88, (5aS,6aR)-5a-(3-chloro-2,6-difluorophenyl)-5,5a,6,6a-tetrahydrocyclopropa[3,4]pyrrolo[2,1-c][1,2,4]triazole-3(2H)-thione] | 45.8% | 6.2% | –
NC(=S)N1CCC(c2ccoc2)C1 (stereo not drawn) [Example 16, 3-(furan-3-yl)pyrrolidine-1-carbothioamide] | – | 55.5% | –
Fc1ccc(Cl)cc1[C@@]12C[C@@H]1c1c[nH]c(=S)n1C2 [Example 110, (5aR,6aS)-5a-(5-chloro-2-fluorophenyl)-5,5a,6,6a-tetrahydrocyclopropa[3,4]pyrrolo[1,2-c]imidazole-3 (2H)-thione] | 73.8% | 15.9% | –
Fc1cc(F)c(F)c([C@H]2Cc3c[nH]c(=S)n3C2)c1 [Example 83, (R)-6-(2,3,5-trifluorophenyl)-2,5,6,7-tetrahydro-3H-pyrrolo[1,2-c]imidazole-3-thione] | 84% | 33.1% | –
Fc1cc(F)cc([C@]23C[C@H]2c2cn(C4CC4)c(=S)n2C3)c1 [Example 77, (5aS,6aR)-2-cyclopropyl-5 a-(3,5-difluorophenyl)-5,5a,6,6a-tetrahydrocyclopropa[3,4]pyrrolo[1,2-c]imidazole-3 (2H)-thione] | – | 23% | –
NC(=S)N1C[C@@H]2C[C@]2(c2cccs2)C1 [Example 28, (1R,5R)-1-(thiophen-2-yl)-3-azabicyclo[3.1.0]hexane-3-carbothioamide] | 0.2% | 3.3% | –
NC(=S)N1C[C@H]2C[C@@]2(c2cc(F)cc(F)c2)C1 [Example 35, (1R,5S)-1-(3,5-difluorophenyl)-3-azabicyclo[3.1.0]hexane-3-carbothioamide] | 95% | 34.3% | 0%
Fc1ccc(Cl)cc1[C@]12C[C@H]1c1c[nH]c(=S)n1C2 [Example 74, (5aS,6aR)-5a-(5-chloro-2-fluorophenyl)-5,5a,6,6a-tetrahydrocyclopropa[3,4]pyrrolo[1,2-c]imidazole-3 (2H)-thione] | 21.9% | 1.8% | –
